Measurements: ChEMBL document CHEMBL1135851, “Synthesis and biological evaluation of pyridine-modified analogues of 3-(2-aminoethoxy)pyridine as novel nicotinic receptor ligands” (Bioorg Med Chem Lett, 2002)

Molecular target: Neuronal acetylcholine receptor
Experiment: Ability to displace radioligand [3H](-)-cytisine from Nicotinic acetylcholine receptor in rat brain membrane.
Assay type: cell membranes

SMILES	Ki [nM]
C[C@@H](N)COc1ccc(Cl)nc1	5.3
C[C@@H](N)COc1ccc(F)nc1	6.6
N[C@H](COc1cnc(Cl)c(/C=C/c2ccncc2)c1)Cc1ccccc1	9.9
NCCOc1cncc(Cl)c1	140
CC[C@H](N)COc1ccc(Cl)nc1	15
CN[C@H](C)COc1ccc(F)nc1	11
C[C@@H](N)COc1cnc(Cl)c(Br)c1	1.5
CN[C@@H](C)COc1ccc(Cl)nc1	41
C[C@@H](N)COc1cnc(Cl)c(/C=C/c2ccncc2)c1	0.081
Cc1ccc(OCCN(C)C)cn1	140
CNCCOc1cccnc1	17
C[C@@H](COc1cnc(Cl)c(/C=C/c2ccncc2)c1)N(C)C	0.37
CC[C@@H](COc1cnc(Cl)c(/C=C/c2ccncc2)c1)N(C)C	3.6
CC[C@H](N)COc1cnc(Cl)c(/C=C/c2ccncc2)c1	0.18
CC[C@H](N)COc1ccc(F)nc1	39
C[C@@H](COc1cnc(Cl)c(Br)c1)N(C)C	31
C[C@H](COc1ccc(F)nc1)N(C)C	70
CN[C@H](COc1cccnc1)Cc1ccccc1	690
CC[C@@H](COc1ccc(F)nc1)NC	220
CN(C)[C@H](COc1cnc(Cl)c(/C=C/c2ccncc2)c1)Cc1ccccc1	4.6

SMILES	Ki [nM]
CNCCOc1cnc(Cl)c(Cl)c1	13
CN(C)CCOc1cncc(Cl)c1	74
CNCCOc1ccc(Cl)nc1	22
CN[C@H](COc1cnc(Cl)c(/C=C/c2ccncc2)c1)Cc1ccccc1	2.6
C[C@@H](COc1ccc(F)nc1)N(C)C	100
C[C@H](N)COc1ccc(F)nc1	8.7
CN[C@@H](C)COc1cnc(Cl)c(Br)c1	11
CNCCOc1cnc(Cl)c(Br)c1	14.3
CN[C@@H](C)COc1ccc(F)nc1	69
Cc1cc(OC[C@H](C)N)cnc1Cl	0.52
Cc1cc(OC[C@@H](C)N(C)C)cnc1Cl	7.2
CN[C@H](COc1cnc(Cl)c(Br)c1)Cc1ccccc1	85
CC[C@H](N)COc1cnc(Cl)c(Br)c1	15
COc1ccc(OCCN(C)C)cn1	406
CN(C)CCOc1cncc([N+](=O)[O-])c1	260
CN[C@@H](C)COc1cnc(Cl)c(C)c1	5.5
CN[C@H](C)COc1ccc(Cl)nc1	5.9
Cc1cc(OC[C@@H](C)N)cnc1Cl	0.98
CNCCOc1cncc([N+](=O)[O-])c1	560
CN(C)CCOc1cncc(Br)c1	50

SMILES	Ki [nM]
Cc1cc(OC[C@H](C)N(C)C)cnc1Cl	9.6
CN[C@H](C)COc1cnc(Cl)c(C)c1	0.57
CN[C@H](C)COc1cnc(Cl)c(Br)c1	1.5
C[C@H](COc1cnc(Cl)c(Br)c1)N(C)C	12
N[C@H](COc1cnc(Cl)c(Br)c1)Cc1ccccc1	100
CN(C)CCOc1cncc(C(F)(F)F)c1	250
CN(C)[C@@H](CCCl)COc1cncc(C(F)(F)F)c1	5.5
CNCCOc1cncc(Cl)c1	37
C[C@H](COc1cnc(Cl)c(/C=C/c2ccncc2)c1)N(C)C	0.1
CNCCOc1ccc(OC)nc1	620
CN(C)CCOc1ccc(Cl)nc1	79
CN(C)CCOc1cnc(Cl)c(Cl)c1	16
CNCCOc1ccc(C)nc1	43
CN(C)CCOc1cnc(Cl)c(Br)c1	7.1
CN[C@H](C)COc1cnc(Cl)c(/C=C/c2ccncc2)c1	0.077
C[C@H](N)COc1cnc(Cl)c(/C=C/c2ccncc2)c1	0.076
CN(C)[C@H](COc1cnc(Cl)c(Br)c1)Cc1ccccc1	320
CNCCOc1cncc(N)c1	27
C[C@H](N)COc1ccc(Cl)nc1	4.5
C[C@H](N)COc1cnc(Cl)c(Br)c1	1.5

Molecular target: not listed separately
Experiment: Ability to displace radioligand [3H](-)-cytisine from Neuronal nicotinic receptor in rat brain membrane was determined.
Assay type: cell membranes

SMILES	Ki [nM]
Clc1ccc(OC[C@H]2CCN2)cn1 [TEBANICLINE]	0.05
